ChEMBL document CHEMBL5528064, “Invention of MK-7845, a SARS-CoV-2 3CL Protease Inhibitor Employing a Novel Difluorinated Glutamine Mimic” (J Med Chem, 2024)

What was measured:
[1] = test system: SARS-CoV-2; test: Antiviral activity against replicon RNA harboring SARS-CoV-2 infected in human A549 cells assessed as inhibition of viral growth measured 40 hrs post treatment; assay type: functional, organism-based; conditions: Severe acute respiratory syndrome coronavirus 2, A549, 40 h
[2] = test system: SARS-CoV-2; test: Antiviral activity against replicon RNA harboring SARS-CoV-2 infected in human A549 cells assessed as inhibition of viral growth; assay type: functional, organism-based; conditions: Severe acute respiratory syndrome coronavirus 2, A549
[3] = Inhibition of SARS-CoV-2 Omicron 3CLpro P132H mutant expressed in Escherichia coli (DE3) competent cells using CP488-ESATLQSGLRKAK-(CPQ2)-NH2 as substrate preincubated for 30 mins followed by substrate addition and measured after 4 hrs by FRET assay; design: species or system Severe acute respiratory syndrome coronavirus 2
[4] = test system: SARS-CoV-2; test: Antiviral activity against SARS-CoV-2 Omicron B.1.1.529 harboring 3CLpro R346K mutant infected in human A549-hACE2-TMPRSS2 cells assessed as inhibition of virus induced cytopathic effect incubated for 72 hrs by celltiter glo assay; assay type: functional, organism-based, Severe acute respiratory syndrome coronavirus 2

Structure (SMILES) | IC50 [1] | further results
COC(=O)N[C@H](C(=O)N1C[C@H]2[C@@H]([C@H]1C(=O)N[C@@H](CCC(C)(F)F)C(=O)C(=O)NC1CC1)C21CCOCC1)C(C)(C)C | 0.032 µM | –
CNC(=O)C(=O)[C@H](CCC(C)(F)F)NC(=O)[C@@H]1C[C@H](C(F)(F)F)CCN1C(=O)[C@@H](NC(=O)OC)C(C)(C)C | 0.012 µM | –
COC(=O)N[C@H](C(=O)N1CCC2(CC2)C[C@H]1C(=O)N[C@@H](CCC(C)(F)F)C(=O)C(=O)NC1CC1)C(C)(C)C | 0.02 µM | –
COC(=O)N[C@H](C(=O)N1CC[C@@H](C(F)(F)F)C[C@H]1C(=O)N[C@@H](CCC(C)(F)F)C(=O)C(=O)NC1CC1)C(C)(C)C | 0.019 µM | –
COC(=O)N[C@H](C(=O)N1CC2(C[C@H]1C(=O)N[C@@H](CCC(C)(F)F)C(=O)C(=O)NC1CC1)CC2(F)F)C(C)(C)C (stereo not given in full) | 0.033 µM | –
COC(=O)N[C@H](C(=O)N1C[C@@H]2CCC[C@@H]2[C@H]1C(=O)N[C@@H](CCC(C)(F)F)C(=O)C(=O)NC1CC1)C(C)(C)C | 0.018 µM | –
CC(C)(C)NC(=O)N[C@H](C(=O)N1C[C@H]2[C@@H]([C@H]1C(=O)N[C@@H](C[C@@H]1CCNC1=O)C(=O)C(N)=O)C2(C)C)C(C)(C)C | – | IC50 [2]: 7.5 µM
CNC(=O)C(=O)[C@H](CCC(C)(F)F)NC(=O)[C@@H]1[C@H]2CCC[C@H]2CN1C(=O)[C@@H](NC(=O)OC)C(C)(C)C | 0.015 µM | IC50 [3]: 0.015 µM; IC50 [4]: 0.215 µM
